Key:
[1] = Water solubility of cyclodextrin complexes with or without polysorbate 80 / polypowder; assay type: physicochemical; settings: aqueous with cosolvent or surfactant or cyclodextrin, complexed with hpbcd, read-out: solubility when complexed with hpbcd
[2] = room temperature, various compositions; cited from earlier work

Structure (SMILES) | solubility [1] [µg/mL] | degradation by water [2] [h]
O=C(NN1C(=O)[C@@H]2[C@@H]3C=C[C@@H]([C@H]4C[C@@H]34)[C@@H]2C1=O)c1ccc(C(F)(F)F)cc1 [tecovirimat] | > 10000 | –
Cc1cc(C2=NOC(c3cc(Cl)cc(Cl)c3)(C(F)(F)F)C2)ccc1C(=O)NCC(=O)NCC(F)(F)F (centres unmarked) [Fluralaner, 4-[5-(3,5-dichlorophenyl)-5-trifluoromethyl-4,5-dihydroisoxazol-3-yl]-2-methyl-N-[(2,2,2-trifluoro-ethylcarbamoyl)-methyl]-benzamide] | – | ≤ 48

Source: patent US11903962B1, “Isoxazoline complexes and compositions thereof” (priority 2023, dated 2024)
